# Entries after “also recorded” stand apart in the source; their conditions may differ.
# Columns and labels:
# human MT1 receptor = molecular target: T1, human MT1 receptor (Homo sapiens, UniProt P48039); test: 2-[125I]iodomelatonin competition binding, human MT1 in CHO cells; settings: human MT1 stably expressed in CHO cells, calculated from IC50 by Cheng and Prusoff
# T1 construct: expressed in transfected cells
# human-cloned MT1 = molecular target: T2, human-cloned MT1 (Homo sapiens, UniProt P48039); test: impedance assay in CHO cells expressing human-cloned MT1 (functional activity); assay type: cell-based; settings: for activity for the MLT receptor subtype MT1 (in words): CHO cells; as to MT1 Activity: key: A = ago0nist; PA = partial agonist; ANT = antagonits
# T2 construct: expressed in transfected cells
# T2 sequence (P48039 whole entry): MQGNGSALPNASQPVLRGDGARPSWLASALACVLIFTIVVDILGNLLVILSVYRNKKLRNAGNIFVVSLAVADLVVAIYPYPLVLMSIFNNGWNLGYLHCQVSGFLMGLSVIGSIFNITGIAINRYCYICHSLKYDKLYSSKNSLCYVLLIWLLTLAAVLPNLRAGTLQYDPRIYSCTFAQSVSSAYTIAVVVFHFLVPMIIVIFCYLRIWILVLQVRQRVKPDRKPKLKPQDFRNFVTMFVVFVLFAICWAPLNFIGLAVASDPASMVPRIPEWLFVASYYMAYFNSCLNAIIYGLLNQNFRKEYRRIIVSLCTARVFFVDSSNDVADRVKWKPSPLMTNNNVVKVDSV
# [1] = molecular target: T3, human-cloned MT2 receptors (Homo sapiens, UniProt P49286); test: cAMP assay in CHO cells expressing human-cloned MT2 (functional activity); assay type: cell-based; settings: CHO cells
# T3 construct: expressed in transfected cells
# T3 sequence (P49286 1-362): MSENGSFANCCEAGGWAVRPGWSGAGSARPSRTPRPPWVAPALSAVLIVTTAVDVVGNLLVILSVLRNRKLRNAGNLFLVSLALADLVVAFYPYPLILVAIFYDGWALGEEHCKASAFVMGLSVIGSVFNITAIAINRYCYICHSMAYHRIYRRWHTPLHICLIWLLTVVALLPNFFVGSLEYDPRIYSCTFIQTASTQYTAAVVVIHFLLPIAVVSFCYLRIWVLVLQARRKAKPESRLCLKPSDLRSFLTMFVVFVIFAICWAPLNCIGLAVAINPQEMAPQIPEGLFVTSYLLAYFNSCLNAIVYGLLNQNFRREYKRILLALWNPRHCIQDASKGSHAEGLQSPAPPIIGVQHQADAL
# Wistar rats = test: hot plate test; assay type: in vivo, rat; settings: for withdrawal temperature compared to untreated rats: summary statement, dose not stated
# Description: Animals: Wistar rats (150-250 g, Charles-River Saint-Constant, Quebec, Canada) were used for the formalin test, hot plate test and L5-L6 spinal nerves ligature model. The animals were housed at constant room temperature and humidity under a 12 h light/dark cycle (lights on at 7 AM). Food and water were available ad libitum. Hot plate test: The hot-plate test was performed by using an electronically controlled hot-plate (Ugo Basile, Italy). The initial temperature was 38° C. A near linear increase in temperature (3° C. per min) was obtained by turning the heating adjustment to maximum. The temperature at which the fast hindpaw lick occurred was recorded as the nociceptive end-point. If no hindpaw lick was observed, the test was terminated at 52° C., and this cut-off value was used in the analysis. The plate was wiped with a wet cloth, and a fan located behind the plate allowed rapid cooling so that testing could be conducted every 7.5 min. Statistical Analysis: Data analysis was done using SigmaPlot 12 (Systat Software, Inc.). Two-way ANOVA for repeated measures was used to analyze data from L5-L6 models using treatments (between) and testing time (within) as factors. One-way ANOVA was used to analyze AUC in the L5-L6 spinal nerves ligation model. One-way ANOVA was used for formalin and hot-plate tests. Post-hoc analyses were performed using Bonferroni t-test comparisons or Student-Newman-Keuls (SNK) test. All data are expressed as mean±Standard Error of the Mean (SEM). P<0.05 was considered significant.
# SNI rats = test: spared nerve injury (SNI) model, dynamic plantar aesthesiometer; assay type: in vivo, rat; settings: for mechanical withdrawal threshold compared to untreated rats: summary statement, dose not stated
# Description: Spared nerve injury (SNI) of the sciatic nerve and measurement of allodynia with the dynamic plantar aesthesiometer. SNI was performed according to the method of Decosterd and Woolf (2000). Rats were anaesthetized with sodium pentobarbital (50 mg/kg i.p.). The sciatic nerve was exposed at mid-thigh level […] to the trifurcation and freed of connective tissue; the three peripheral branches (sural, common peroneal, and tibial nerves) of the sciatic nerve were exposed without stretching nerve structures. Both tibial and common peroneal nerves were ligated and transected together. The sham procedure consisted of the same surgery without ligation and transection of the nerves. Fourteen days after SNI, mechanical allodynia was measured using the dynamic plantar aesthesiometer (Ugo Basile, Varese, Italy). Each rat was placed and allowed to move freely in one of the two compartments of the enclosure positioned on a metal grid surface. A mechanical stimulus was delivered to the plantar surface of the rat's hind paw through the metal grid by a steel filament (Von Frey-type), connected to a movable touch-stimulator unit exerting an increasing force of 3 g per second. The force inducing paw withdrawal was recorded to the nearest 0.1 g. Nociceptive responses for mechanical sensitivity (mechanical withdrawal threshold) were measured in grams before and after vehicle or drug administration by an experimenter blind to the treatments. A single trial at each time point was performed on the ipsilateral hind paw to SNI surgery for each rat. Nociceptive responses for mechanical sensitivity were expressed as mean±SEM (g). Groups of 6-7 rats per treatment were used, with each animal being used for one treatment only.
# Statistical Analysis: Data analysis was done using SigmaPlot 12 (Systat Software, Inc.). Two-way ANOVA for repeated measures was used to analyze data from L5-L6 models using treatments (between) and testing time (within) as factors. One-way ANOVA was used to analyze AUC in the L5-L6 spinal nerves ligation model. One-way ANOVA was used for formalin and hot-plate tests. Post-hoc analyses were performed using Bonferroni t-test comparisons or Student-Newman-Keuls (SNK) test. All data are expressed as mean±Standard Error of the Mean (SEM). P<0.05 was considered significant.
# [2] = 20 mg/kg s.c., 30 min post treatment
# [3] = 20 mg/kg s.c., 1 hour post treatment
# [4] = 20 mg/kg s.c., 4 hours post treatment
# [5] = 40 mg/kg, 1 hour post treatment
# [6] = 40 mg/kg, 4 hours post treatment
# T1 sequence (P48039 whole entry): as the sequence (P48039 whole entry) above
Ki (human MT1 receptor; read-out: MT1 pKi (converted)) [µM],activity for the MLT receptor subtype MT1 (in words) (human-cloned MT1),"MT1 Activity (human-cloned MT1; intrinsic activity, human MT1 in CHO cells)",activity for the MLT receptor subtype MT2 (in words) [1],MT1 pKi (human MT1 receptor),SMILES,withdrawal temperature vs vehicle (Wistar rats; [2]),withdrawal temperature vs vehicle (Wistar rats; [3]),withdrawal temperature vs vehicle (Wistar rats; [4]),withdrawal temperature vs vehicle (Wistar rats; [5]),withdrawal temperature vs vehicle (Wistar rats; [6]),withdrawal temperature compared to untreated rats (Wistar rats),"effect on mechanical allodynia compared with GBP 100 mg/kg, MLT 150 mg/kg and VEH (SNI rats; 20 mg/kg s.c.)",reduction of the mechanical allodynia (SNI rats; 20 mg/kg s.c.),reduction of the mechanical allodynia (SNI rats; 40 mg/kg s.c.),extent of reversal of mechanical allodynia (SNI rats; 20 and 40 mg/Kg s.c.),mechanical withdrawal threshold compared to untreated rats (SNI rats)
0.178,antagonist,ANT,partial agonist activity,–,"CC(=O)NCCN(c1ccc(F)cc1)c1cccc(Br)c1 [5p, N-{2-[(3-Bromophenyl)-4-fluorophenylamino]ethyl}acetamide]",significant increase of the withdrawal temperature,increase of withdrawal temperature; also recorded: increased the withdrawal temperature,significant increase of withdrawal temperature; also recorded: increased the withdrawal temperature,increase of withdrawal temperature,significant increase of withdrawal temperature,significant increase in withdrawal temperature,greater than those produced by GBP,significant reduction of the mechanical allodynia,significant reduction of the mechanical allodynia,reversed almost completely mechanical allodynia,significant decrease in mechanical withdrawal threshold
–,partial agonist activity,–,partial agonist activity,8.38,"COc1cccc(N(CCNC(C)=O)c2ccccc2)c1 [5b, N-{2-[(3-Methoxyphenyl)-phenylamino]ethyl}acetamide]",significant increase of the withdrawal temperature,increase of withdrawal temperature; also recorded: increased the withdrawal temperature,significant increase of withdrawal temperature; also recorded: increased the withdrawal temperature,increase of withdrawal temperature,significant increase of withdrawal temperature,significant increase in withdrawal temperature,–,significant reduction of the mechanical allodynia,significant reduction of the mechanical allodynia,–,significant decrease in mechanical withdrawal threshold

# Reference: patent US20160221932A1, “Methods and Uses of Melatonin Ligands” (priority 2013, published 2016)
